According to patent publication US12252488B2 (Nimbus Saturn, Inc., priority 2021, dated 2025):

Target: T1, HPK1 (Homo sapiens, UniProt Q92918)
T1 construct: purchased Invitrogen
Assay: HPK1 biochemical enzyme assay (microfluidic mobility shift assay)
Settings: 1000 uM (1 mM) ATP; Caliper mobility shift; 1.5 nM HPK1; 30 min preincubation; read-out: HPK1 1000UMATP caliper IC50
Protocol: Example 33. HPK1 Biochemical Enzyme Assay
HPK1 biochemical enzyme assay: HPK1 enzyme inhibition was measured using a microfluidic mobility shift assay. Reactions were performed in a 384-well plate, containing 1.5 nM HPK1 (Invitrogen), in assay buffer (Carna Biosciences; pH 7.4). Test compounds were titrated in ten point curves (top final assay concentration 3 μM), and preincubated with enzyme/substrate mix for 30 min prior to initiation of the reaction by addition of ATP (1 mM final concentration) and substrate (1 μM final concentration; Carna Biosciences) diluted in assay buffer supplemented by MgCl2 (final assay concentration of 5 mM). Following 60 min incubation at RT, the reaction was terminated by addition of 60 μl/well termination buffer (Carna Biosciences) and signal determination using a Caliper EZ Reader (Perkin Elmer, UK).
The compound numbers correspond to the compound numbers in Table 1. Compounds having an activity designated as “A” provided an IC50≤100 nM; compounds having an activity designated as “B” provided an IC50>100 nM and ≤1,000 nM; compounds having an activity designated as “C” provided an IC50>1,000 nM.

T1 sequence (Q92918 whole entry): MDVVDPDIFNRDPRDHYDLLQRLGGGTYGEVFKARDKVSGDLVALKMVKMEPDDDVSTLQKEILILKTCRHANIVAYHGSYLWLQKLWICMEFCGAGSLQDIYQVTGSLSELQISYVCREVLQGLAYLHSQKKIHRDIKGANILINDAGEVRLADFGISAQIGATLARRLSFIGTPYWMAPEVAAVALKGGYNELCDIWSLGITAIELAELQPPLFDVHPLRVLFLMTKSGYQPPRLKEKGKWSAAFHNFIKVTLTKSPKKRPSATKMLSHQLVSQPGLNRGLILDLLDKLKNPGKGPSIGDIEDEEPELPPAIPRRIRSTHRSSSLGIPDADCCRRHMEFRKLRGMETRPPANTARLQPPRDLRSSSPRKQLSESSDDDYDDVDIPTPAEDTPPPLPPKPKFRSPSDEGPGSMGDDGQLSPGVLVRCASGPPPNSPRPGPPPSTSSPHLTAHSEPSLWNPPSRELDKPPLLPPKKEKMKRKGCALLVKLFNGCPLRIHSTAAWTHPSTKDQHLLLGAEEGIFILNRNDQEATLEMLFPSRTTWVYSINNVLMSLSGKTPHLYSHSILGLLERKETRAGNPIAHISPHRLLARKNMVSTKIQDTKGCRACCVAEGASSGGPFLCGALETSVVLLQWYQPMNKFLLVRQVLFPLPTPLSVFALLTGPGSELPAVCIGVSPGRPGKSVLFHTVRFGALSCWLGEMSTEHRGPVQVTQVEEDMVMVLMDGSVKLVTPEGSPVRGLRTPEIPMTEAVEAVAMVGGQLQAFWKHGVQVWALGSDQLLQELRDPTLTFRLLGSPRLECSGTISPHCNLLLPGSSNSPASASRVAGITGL

SMILES | IC50 [µM]
N#Cc1c[nH]c(=O)c2c(Nc3ccc(N4CCC(O)CC4)cn3)cc(-c3c(F)cccc3F)nc12 [I-33, 2-(2,6-difluorophenyl)-4-[[5-(4-hydroxy-1-piperidyl)-2-pyridyl]amino]-5-oxo-6H-1,6-naphthyridine-8-carbonitrile] | 0.1 to 1
O=C(O)c1c[nH]c(=O)c2c(Nc3ccc(N4CCC(O)CC4)cn3)cc(-c3c(F)cccc3F)nc12 [I-39, 2-(2,6-difluorophenyl)-4-[[5-(4-hydroxy-1-piperidyl)-2-pyridyl]amino]-5-oxo-6H-1,6-naphthyridine-8-carboxylic Acid] | > 1
COc1ccc(F)c(-c2cc(Nc3ccc(N4CCC(O)CC4)cn3)c3c(=O)[nH]ccc3n2)c1 [I-42, 2-(2-fluoro-5-methoxyphenyl)-4-((5-(4-hydroxypiperidin-1-yl)pyridin-2-yl)amino)-1,6-naphthyridin-5(6H)-one] | 0.1 to 1
O=c1[nH]ccc2nccc(Nc3ccc(N4CCC(O)CC4)cn3)c12 [I-44, 4-[[5-(4-hydroxy-1-piperidyl)-2-pyridyl]amino]-6H-1,6-naphthyridin-5-one] | ≤ 0.1
N#Cc1ccc(F)c(-c2cc(Nc3ccc(N4CCC(O)CC4)cn3)c3c(=O)[nH]ccc3n2)c1 [I-45, 4-fluoro-3-[4-[[5-(4-hydroxy-1-piperidyl)-2-pyridyl]amino]-5-oxo-6H-1,6-naphthyridin-2-yl] benzonitrile] | ≤ 0.1
CCNC(=O)C(C)(C)c1ccc(Nc2cc(-c3c(F)cccc3F)nc3cc[nH]c(=O)c23)nc1 [I-46, 2-[6-[[2-(2,6-difluoro-phenyl)-5-oxo-6H-1,6-naphthyridin-4-yl]amino]-3-pyridyl]-N-ethyl-2-methyl-propanamide] | 0.1 to 1
CC(C)c1ccc(F)c(-c2cc(Nc3ccc(N4CCC(O)CC4)cn3)c3c(=O)[nH]ccc3n2)c1 [I-48, 2-(2-fluoro-5-isopropyl-phenyl)-4-[[5-(4-hydroxy-1-piperidyl)-2-pyridyl]amino]-6H-1,6-naphthyridin-5-one] | 0.1 to 1
CCc1c[nH]c(=O)c2c(Nc3ccc(N4CCC(O)CC4)cn3)cc(-c3c(F)cccc3F)nc12 [I-49, 2-(2,6-difluorophenyl)-8-ethyl-4-((5-(4-hydroxypiperidin-1-yl)pyridin-2-yl)amino)-1,6-naphthyridin-5(6H)-one] | 0.1 to 1
NC(=O)c1ccc(F)c(-c2cc(Nc3ccc(N4CCC(O)CC4)cn3)c3c(=O)[nH]ccc3n2)c1 [I-51, 4-fluoro-3-[4-[[5-(4-hydroxy-1-piperidyl)-2-pyridyl]amino]-5-oxo-6H-1,6-naphthyridin-2-yl]benzamide] | 0.1 to 1
CCN(C)C(=O)C(C)(C)c1ccc(Nc2cc(-c3c(F)cccc3F)nc3cc[nH]c(=O)c23)nc1 [I-52, 2-[6-[[2-(2,6-difluoro-phenyl)-5-oxo-6H-1,6-naphthyridin-4-yl]amino]-3-pyridyl]-N-ethyl-N,2-dimethyl-propanamide] | 0.1 to 1
CCOC(=O)C(C)(C)c1ccc(Nc2cc(-c3c(F)cccc3F)nc3cc[nH]c(=O)c23)nc1 [I-53, ethyl 2-[6-[[2-(2,6-difluoro-phenyl)-5-oxo-6H-1,6-naphthyridin-4-yl]amino]-3-pyridyl]-2-methyl-propanoate] | ≤ 0.1
COc1cc(F)c(-c2cc(Nc3ccc(N4CCC(O)CC4)cn3)c3c(=O)[nH]ccc3n2)cc1C [I-55, 2-(2-fluoro-4-methoxy-5-methyl-phenyl)-4-[[5-(4-hydroxy-1-piperidyl)-2-pyridyl]amino]-6H-1,6-naphthyridin-5-one] | 0.1 to 1
O=c1[nH]cc(-c2ccccc2)c2nc(-c3c(F)cccc3F)cc(Nc3ccc(N4CCC(O)CC4)cn3)c12 [I-56] | > 1
CC(C)c1cc(Nc2ccc(N3CCN(C)CC3)cn2)c2c(=O)[nH]ccc2n1 [I-57, 2-isopropyl-4-[[5-(4-methyl-piperazin-1-yl)-2-pyridyl]amino]-6H-1,6-naphthyridin-5-one] | ≤ 0.1
O=C(Nc1ccc(-c2cc(Nc3ccc(N4CCC(O)CC4)cn3)c3c(=O)[nH]ccc3n2)c(F)c1)C1CC1 [I-58, N-[3-fluoro-4-[4-[[5-(4-hydroxy-1-piperidyl)-2-pyridyl]amino]-5-oxo-6H-1,6-naphthyridin-2-yl]phenyl] cyclopropane-carboxamide] | ≤ 0.1
CC(C)c1cc(Nc2ccc(N3CCC(O)CC3)cn2)c2c(=O)[nH]cnc2n1 [I-59, 5-[[5-(4-hydroxy-1-piperidyl)-2-pyridyl]amino]-7-isopropyl-3H-pyrido[2,3-d]pyrimidin-4-one] | 0.1 to 1
CCCc1cc(Nc2ccc(N3CCC(O)CC3)cn2)c2c(=O)[nH]cnc2n1 [I-60, 5-[[5-(4-hydroxy-1-piperidyl)-2-pyridyl]amino]-7-propyl-3H-pyrido[2,3-d]pyrimidin-4-one] | 0.1 to 1
O=c1[nH]ccc2nc(-c3ccc(OCc4ccncc4)cc3F)cc(Nc3ccc(N4CCC(O)CC4)cn3)c12 [I-61, 2-[2-fluoro-4-(4-pyridyl-methoxy)phenyl]-4-[[5-(4-hydroxy-1-piperidyl)-2-pyridyl]amino]-6H-1,6-naphthyridin-5-one] | 0.1 to 1
CN(C)C(=O)c1ccc(-c2cc(Nc3ccc(N4CCC(O)CC4)cn3)c3c(=O)[nH]ccc3n2)c(F)c1 [I-62, 3-fluoro-4-[4-[[5-(4-hydroxy-1-piperidyl)-2-pyridyl]amino]-5-oxo-6H-1,6-naphthyridin-2-yl]-N,N-dimethyl-benzamdie] | 0.1 to 1
O=c1[nH]ccc2nc(-c3ccccc3F)cc(Nc3ccc(N4CCC(O)CC4)cn3)c12 [I-64, 2-(2-fluoro-phenyl)-4-[[5-(4-hydroxy-1-piperidyl)-2-pyridyl]amino]-6H-1,6-naphthyridin-5-one] | 0.1 to 1
COc1cccc(-c2cc(Nc3ccc(N4CCC(O)CC4)cn3)c3c(=O)[nH]ccc3n2)c1F [I-65, 2-(2-fluoro-3-methoxy-phenyl)-4-[[5-(4-hydroxy-1-piperidyl)-2-pyridyl]amino]-6H-1,6-naphthyridin-5-one] | 0.1 to 1
CCOc1ccc(F)c(-c2cc(Nc3ccc(N4CCC(O)CC4)cn3)c3c(=O)[nH]ccc3n2)c1 [I-66, 2-(5-ethoxy-2-fluoro-phenyl)-4-[[5-(4-hydroxy-1-piperidyl)-2-pyridyl]amino]-6H-1,6-naphthyridin-5-one] | 0.1 to 1

The remaining lines, values ahead:

IC50 [µM] | SMILES
0.1 to 1 | CCC(CC)c1cc(Nc2ccc(N3CCC(O)CC3)cn2)c2c(=O)[nH]ccc2n1 [I-32, 2-(1-ethylpropyl)-4-[[5-(4-hydroxy-1-piperidyl)-2-pyridyl]amino]-6H-1,6-naphthyridin-5-one]
0.1 to 1 | O=c1[nH]ccc2nc(C3CCNCC3)cc(Nc3ccc(N4CCC(O)CC4)cn3)c12 [I-34, 4-[[5-(4-hydroxy-1-piperidyl)-2-pyridyl]amino]-2-(4-piperidyl)-6H-1,6-naphthyridin-5-one]
0.1 to 1 | O=c1[nH]ccc2nc(C3CC4CCC3C4)cc(Nc3ccc(N4CCC(O)CC4)cn3)c12 (stereo not shown) [I-35, 4-[[5-(4-hydroxy-1-piperidyl)-2-pyridyl]amino]-2-norbornan-2-yl-6H-1,6-naphthyridin-5-one]
≤ 0.1 | O=c1[nH]ccc2nc(C3CCOCC3)cc(Nc3ccc(N4CCC(O)CC4)cn3)c12 [I-36, 4-[[5-(4-hydroxy-1-piperidyl)-2-pyridyl]amino]-2-tetrahydropyran-4-yl-6H-1,6-naphthyridin-5-one]
0.1 to 1 | CC(O)c1cc(Nc2ccc(N3CCC(O)CC3)cn2)c2c(=O)[nH]ccc2n1 (stereo not shown) [I-37, 2-(1-hydroxyethyl)-4-[[5-(4-hydroxy-1-piperidyl)-2-pyridyl]amino]-6H-1,6-naphthyridin-5-one]
≤ 0.1 | CC(C)(O)c1cc(Nc2ccc(N3CCC(O)CC3)cn2)c2c(=O)[nH]ccc2n1 [I-38, 2-(1-hydroxy-1-methyl-ethyl)-4-[[5-(4-hydroxy-1-piperidyl)-2-pyridyl]amino]-6H-1,6-naphthyridin-5-one]
0.1 to 1 | O=c1[nH]ccc2nc(C3CC4CCC3C4)cc(Nc3ccc(N4CCC(O)CC4)cn3)c12 (stereo not shown) [I-40, 4-[[5-(4-hydroxy-1-piperidyl)-2-pyridyl]amino]-2-norbornan-2-yl-6H-1,6-naphthyridin-5-one]
≤ 0.1 | O=c1[nH]ccc2nc(-c3cc(C4CC4)ccc3F)cc(Nc3ccc(N4CCC(O)CC4)cn3)c12 [I-43, 2-(5-cyclopropyl-2-fluoro-phenyl)-4-[[5-(4-hydroxy-1-piperidyl)-2-pyridyl]amino]-6H-1,6-naphthyridin-5-one]
≤ 0.1 | CC(=O)c1cc(Nc2ccc(N3CCC(O)CC3)cn2)c2c(=O)[nH]ccc2n1 [I-47, 2-acetyl-4-[[5-(4-hydroxy-1-piperidyl)-2-pyridyl]amino]-6H-1,6-naphthyridin-5-one]
0.1 to 1 | O=c1[nH]ccc2nc(N3CCCC(O)C3)cc(Nc3ccc(N4CCC(O)CC4)cn3)c12 (stereo not shown) [I-50, 2-(3-hydroxy-1-piperidyl)-4-[[5-(4-hydroxy-1-piperidyl)-2-pyridyl]amino]-6H-1,6-naphthyridin-5-one]
0.1 to 1 | CC1(Cc2cc(Nc3ccc(N4CCC(O)CC4)cn3)c3c(=O)[nH]ccc3n2)COC1 [I-54, 4-[[5-(4-hydroxy-1-piperidyl)-2-pyridyl]amino]-2-[(3-methyl-oxetan-3-yl)methyl]-6H-1,6-naphthyridin-5-one]
0.1 to 1 | CC(=O)N1CCC(c2cc(Nc3ccc(N4CCC(O)CC4)cn3)c3c(=O)[nH]ccc3n2)CC1 [I-63, 2-(1-acetyl-4-piperidyl)-4-[[5-(4-hydroxy-1-piperidyl)-2-pyridyl]amino]-6H-1,6-naphthyridin-5-one]
